Data published in PubChem BioAssay (NCI).
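Test compounds were applied to cells in 96-well plates for 48 hours at 5 doses. At the TGI there is no net growth.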

Experiments:
Assay in all cases: growth of human tumour cells (NCI), 48 h
DU-145 prostate = test system: DU-145 prostate
UACC-62 melanoma = test system: UACC-62 melanoma
HCT-116 colon = test system: HCT-116 colon
BT-549 breast = test system: BT-549 breast
CAKI-1 renal = test system: CAKI-1 renal
OVCAR-5 ovarian = test system: OVCAR-5 ovarian
U251 CNS = test system: U251 CNS
SK-MEL-5 melanoma = test system: SK-MEL-5 melanoma
HT29 colon = test system: HT29 colon
NCI-H522 lung = test system: NCI-H522 lung
SW-620 colon = test system: SW-620 colon
UACC-257 melanoma = test system: UACC-257 melanoma
OVCAR-3 ovarian = test system: OVCAR-3 ovarian
PC-3 prostate = test system: PC-3 prostate
RXF 393 renal = test system: RXF 393 renal
HCT-15 colon = test system: HCT-15 colon
T-47D breast = test system: T-47D breast
EKVX NSCLC = test system: EKVX NSCLC
SK-OV-3 ovarian = test system: SK-OV-3 ovarian
K-562 leukemia = test system: K-562 leukemia
HL-60(TB) leukemia = test system: HL-60(TB) leukemia
MDA-N = test system: MDA-N
HS 578T breast = test system: HS 578T breast
SK-MEL-28 melanoma = test system: SK-MEL-28 melanoma
SF-268 CNS = test system: SF-268 CNS
A549 NSCLC = test system: A549 NSCLC
IGROV1 ovarian = test system: IGROV1 ovarian
HOP-62 NSCLC = test system: HOP-62 NSCLC
SNB-75 CNS = test system: SNB-75 CNS
OVCAR-4 ovarian = test system: OVCAR-4 ovarian
NCI-H226 lung = test system: NCI-H226 lung
MDA-MB-435 = test system: MDA-MB-435
OVCAR-8 ovarian = test system: OVCAR-8 ovarian
SR leukemia = test system: SR leukemia
UO-31 renal = test system: UO-31 renal
LOX IMVI melanoma = test system: LOX IMVI melanoma
TK-10 renal = test system: TK-10 renal
MOLT-4 leukemia = test system: MOLT-4 leukemia
HOP-92 NSCLC = test system: HOP-92 NSCLC
SF-539 CNS = test system: SF-539 CNS
MDA-MB-231 breast = test system: MDA-MB-231 breast
M14 melanoma = test system: M14 melanoma
SN12C renal = test system: SN12C renal
KM12 colon = test system: KM12 colon
NCI/ADR-RES ovarian = test system: NCI/ADR-RES ovarian
MCF7 breast = test system: MCF7 breast
SNB-19 CNS = test system: SNB-19 CNS
COLO 205 colon = test system: COLO 205 colon
ACHN renal = test system: ACHN renal
NCI-H23 lung = test system: NCI-H23 lung
RPMI-8226 leukemia = test system: RPMI-8226 leukemia
CCRF-CEM leukemia = test system: CCRF-CEM leukemia
A498 renal = test system: A498 renal
HCC-2998 colon = test system: HCC-2998 colon
SF-295 CNS = test system: SF-295 CNS
786-0 renal = test system: 786-0 renal
SK-MEL-2 melanoma = test system: SK-MEL-2 melanoma
NCI-H460 lung = test system: NCI-H460 lung
MALME-3M melanoma = test system: MALME-3M melanoma

Cc1ccc(NCCN(C)C)c2c(=O)c3cc(O)ccc3oc12
TGI (DU-145 prostate): 28.3 µM
TGI (UACC-62 melanoma): 23 µM
TGI (HCT-116 colon): 17.2 µM
TGI (BT-549 breast): 30.6 µM
TGI (CAKI-1 renal): 22.9 µM
TGI (OVCAR-5 ovarian): 29.1 µM
TGI (U251 CNS): 21 µM
TGI (SK-MEL-5 melanoma): 24 µM
TGI (HT29 colon): 23.7 µM
TGI (NCI-H522 lung): 21.7 µM
TGI (SW-620 colon): 17 µM
TGI (UACC-257 melanoma): 32.7 µM
TGI (OVCAR-3 ovarian): 30.8 µM
TGI (PC-3 prostate): 24.2 µM
TGI (RXF 393 renal): 24.4 µM
TGI (HCT-15 colon): 21.2 µM
TGI (T-47D breast): 31.5 µM
TGI (EKVX NSCLC): 29.2 µM
TGI (SK-OV-3 ovarian): 26.4 µM
TGI (K-562 leukemia): 12.3 µM
TGI (HL-60(TB) leukemia): 19.4 µM
TGI (MDA-N): 23 µM
TGI (HS 578T breast): 19.9 µM
TGI (SK-MEL-28 melanoma): 28.4 µM
TGI (SF-268 CNS): 17.7 µM
TGI (A549 NSCLC): 20.9 µM
TGI (IGROV1 ovarian): 24.9 µM
TGI (HOP-62 NSCLC): 23.3 µM
TGI (SNB-75 CNS): 16 µM
TGI (OVCAR-4 ovarian): 31.3 µM
TGI (NCI-H226 lung): 29.5 µM
TGI (MDA-MB-435): 24.4 µM
TGI (OVCAR-8 ovarian): 19.7 µM
TGI (SR leukemia): 3.35 µM
TGI (UO-31 renal): 22.1 µM
TGI (LOX IMVI melanoma): 22.2 µM
TGI (TK-10 renal): 27.9 µM
TGI (MOLT-4 leukemia): 11.7 µM
TGI (HOP-92 NSCLC): 23.4 µM
TGI (SF-539 CNS): 20.5 µM
TGI (MDA-MB-231 breast): 22.2 µM
TGI (M14 melanoma): 25.3 µM
TGI (SN12C renal): 20.2 µM
TGI (KM12 colon): 25 µM
TGI (NCI/ADR-RES ovarian): 24.3 µM
TGI (MCF7 breast): 19.6 µM
TGI (SNB-19 CNS): 23.7 µM
TGI (COLO 205 colon): 24.2 µM
TGI (ACHN renal): 17.6 µM
TGI (NCI-H23 lung): 25.6 µM
TGI (RPMI-8226 leukemia): 34.3 µM
TGI (CCRF-CEM leukemia): 16 µM
TGI (A498 renal): 28.2 µM
TGI (HCC-2998 colon): 24.3 µM
TGI (SF-295 CNS): 23 µM
TGI (786-0 renal): 18.3 µM
TGI (SK-MEL-2 melanoma): 35.4 µM
TGI (NCI-H460 lung): 15 µM
TGI (MALME-3M melanoma): 27.3 µM

O=C(Nc1sccc1S(=O)(=O)c1ccc(Cl)cc1)c1ccc(Cl)cc1
TGI (DU-145 prostate): > 100 µM
TGI (UACC-62 melanoma): > 100 µM
TGI (HCT-116 colon): > 100 µM
TGI (BT-549 breast): > 100 µM
TGI (CAKI-1 renal): > 100 µM
TGI (OVCAR-5 ovarian): > 100 µM
TGI (U251 CNS): > 100 µM
TGI (SK-MEL-5 melanoma): > 100 µM
TGI (HT29 colon): > 100 µM
TGI (NCI-H522 lung): > 100 µM
TGI (SW-620 colon): > 100 µM
TGI (UACC-257 melanoma): > 100 µM
TGI (OVCAR-3 ovarian): > 100 µM
TGI (PC-3 prostate): 90.4 µM
TGI (RXF 393 renal): > 100 µM
TGI (HCT-15 colon): > 100 µM
TGI (T-47D breast): > 100 µM
TGI (EKVX NSCLC): > 100 µM
TGI (SK-OV-3 ovarian): > 100 µM
TGI (K-562 leukemia): > 100 µM
TGI (HL-60(TB) leukemia): > 100 µM
TGI (MDA-N): > 100 µM
TGI (HS 578T breast): > 100 µM
TGI (SK-MEL-28 melanoma): > 100 µM
TGI (SF-268 CNS): > 100 µM
TGI (A549 NSCLC): > 100 µM
TGI (IGROV1 ovarian): > 100 µM
TGI (HOP-62 NSCLC): > 100 µM
TGI (SNB-75 CNS): > 100 µM
TGI (OVCAR-4 ovarian): > 100 µM
TGI (NCI-H226 lung): > 100 µM
TGI (MDA-MB-435): > 100 µM
TGI (OVCAR-8 ovarian): > 100 µM
TGI (SR leukemia): > 100 µM
TGI (UO-31 renal): > 100 µM
TGI (LOX IMVI melanoma): > 100 µM
TGI (TK-10 renal): > 100 µM
TGI (MOLT-4 leukemia): > 100 µM
TGI (HOP-92 NSCLC): > 100 µM
TGI (SF-539 CNS): > 100 µM
TGI (MDA-MB-231 breast): > 100 µM
TGI (M14 melanoma): > 100 µM
TGI (SN12C renal): > 100 µM
TGI (KM12 colon): > 100 µM
TGI (NCI/ADR-RES ovarian): > 100 µM
TGI (MCF7 breast): > 100 µM
TGI (SNB-19 CNS): > 100 µM
TGI (COLO 205 colon): > 100 µM
TGI (ACHN renal): > 100 µM
TGI (NCI-H23 lung): > 100 µM
TGI (RPMI-8226 leukemia): > 100 µM
TGI (CCRF-CEM leukemia): > 100 µM
TGI (A498 renal): > 100 µM
TGI (HCC-2998 colon): > 100 µM
TGI (SF-295 CNS): > 100 µM
TGI (786-0 renal): > 100 µM
TGI (SK-MEL-2 melanoma): > 100 µM
TGI (NCI-H460 lung): > 100 µM
TGI (MALME-3M melanoma): > 100 µM
